Data reported in patent US11925618B2, “Pharmaceutical combination for the treatment of cancer” (Piramal Enterprises Limited, priority 2014, dated 2024).
Like-named read-outs stand apart in the source and are kept apart here.

Tests used:
Type in all cases: cell-based
FaDu cell lines = assay: CGI (cell growth inhibition, propidium iodide) assay in FaDu cell lines
Description: (§1) The media was removed from the flask containing cells and 2-3 mL of sterile 1×DPBS was added to the flask. The DPBS was then removed from the flask and 2 mL of trypsin was added to the flask. The flask was kept in the incubator for a few seconds. The cells were then checked whether dislodged and if dislodged, 2 mL of serum was added to the flask. To the flask was then added 5-6 mL of media and swirled. The media was collected from the flask and centrifuged at 600 rpm for 10 min.
(§2) The supernatant solution was decanted and the pellet was re-suspended in 10 mL of media. To a 1.7 mL MCT; 50 μL of tryphan blue, 40 μL of media and 10 μL of cell suspension were added. The solution was then vortexed and 10 μL of this solution was loaded on a hemocytometer. The cells were counted in hemocytometer chambers and further calculated to get a count of ≥3000 cells/well/200 μL.
(§3) The cell stock was prepared using respective media and FBS, and 200 μL of the cell stock was added to each well (except media control wells) of white delta treated 96 well plate using a multi-channel pipette. To the media control wells, 200 μL of media was added. The plates were then incubated at 37° C. for 12-16 h.
(§4) The drug (the therapeutic agent) i.e. the CDK inhibitor and the antioxidant enzyme inhibitor were separately diluted to 10 folds using DMSO. The media of the plates was changed before the addition of drug to the plates and these plates were then placed in the incubator. 1 μL of CDK inhibitor and antioxidant enzyme inhibitor was added simultaneously to the respective wells and placed on the plate shaker for 15-30 mins. The plates were then placed back in incubator for 72 h or the time of incubation as decided.
(§5) 200 μL of media from each well was gently aspirated and then added 100 μL of 1×DPBS at room temperature to each well. The working stock of PI (stock 1 mg/mL) was prepared using 140 μL of PI and 20 mL of 1×DPBS for one plate. Then 1×DPBS was removed from the wells and 200 μL of PI working stock was added to each well. These plates were kept in dark for 5-10 min at room temperature on a shaker, after which the plates were stored at −80° C. until reading of the plate.
(§6) The plate was read in Spectramax fluorescence excitation maximum is 535 nm and the emission maximum is 617 nm.
Cell lines: The cell lines of FaDu for head and neck squamous cell carcinomas (HNSCC) obtained from ATCC (American Tissue type Culture Collection), USA were used in this study.
The analysis of combination index (CI) and cell growth inhibition was carried out using CGI assay method. […]
The combination studies of CDK inhibitor with TrxR inhibitor, auranofin was carried out at 12, 24, 48 and 72 h and the time point for which optimum synergy was obtained was determined. […]

[1] = tested on: Thioredoxin Reductase (TrxR); assay: TrxR activity assay (DTNB reduction) in FaDu cell lysates; settings: FaDu cells, DTNB reduction with or without ATM
Description: • (i) Cell lines: The cell lines of FaDu for head and neck squamous cell carcinomas (HNSCC) obtained from ATCC (American Tissue type Culture Collection), USA. • (ii) DTNB: Dithio nitro benzoic acid • (iii) ATM: Aurothiomalate
TrxR assay was conducted in six-well plates with 1M cells per well. The cells were treated with various concentrations of auranofin or voruciclib and in combination of both. The TrxR activity was measured in cell lysates using DTNB (Dithio nitro benzoic acid). The DINS was reduced to TNB (Thio nito benzoic acid) with or without a specific TrxR inhibitor, Aurothiomalate (ATM). The TrxR activity was calculated based on the difference in slope obtained from linear kinetic of DTNB reduction with or without ATM treatment.
The effect of auranofin and voruciclib combination on TrxR activity assay in FaDu cells are depicted in FIG. 16. The data is represented as mean±SEM (N=2) of % TrxR activity (Y-axis) and various concentration (μM) of Auranofin or voruciclib or combination of both (X-axis); PC—Positive control, C—Vehicle control.

[2] = tested on: ROS production in FaDu cells; assay: Cellular ROS detection assay using DCFDA; settings: single agent
Description: as §1
as §2, with “≥25000” for “≥3000”, “μL. […]” for “μL.”
The plate was read in Spectamax fluoroscence excitation maximum is 485 nm and the emission maximum is 535 nm. […]
The […] cells were treated with various concentrations (μM) of auranofin or voruciclib alone or in combination. […] The treated FaDu/MDAMB-431 cells were analyzed on a fluorescent plate reader vis-a-vis the cells of positive control which were treated with 50 μM tert-butyl hydrogen peroxide (TBHP). […]

MDA-MB-231 cell lines = assay: CGI (cell growth inhibition, propidium iodide) assay in MDA-MB-231 cell lines; settings: determined at 72 h
Description: as §1, §2, §3, §4, §5, §6
Cell lines: The cell lines of MDA-MB-231 for triple negative breast cancer (TNBC) obtained from ATCC (American Tissue type Culture Collection), USA were used in this study.
The analysis of combination index and cell growth inhibition was carried out using CGI assay method. […]
The combination studies of CDK inhibitor with each of the TrxR inhibitors, auranofin, ebselen and ATO was carried out at 12, 24, 48 and 72 h and the time point for which optimum synergy was obtained was determined. […]

Compound	EC50 (FaDu cell lines; Homo sapiens, FaDu cell lines, determined at 48 h, read-out: EC50)	effect on TrxR activity [1]	increase in ROS level as compared to untreated control [2]	EC50 (MDA-MB-231 cell lines; Homo sapiens)	EC50 (FaDu cell lines; FaDu cell lines, determined at 72 h, read-out: EC50)	EC50 (MDA-MB-231 cell lines)	EC50 (FaDu cell lines; Homo sapiens, FaDu, 72 h)	EC50 (FaDu cell lines; FaDu cell lines, determined at 48 h, read-out: EC50)
CN1CC[C@@H](c2c(O)cc(O)c3c(=O)cc(-c4ccc(C(F)(F)F)cc4Cl)oc23)[C@@H]1CO.Cl [Voruciclib, (+)-2-[2-Chloro-4-(trifluoromethyl)phenyl]-5,7-dihydroxy-8-[(2R,3S)-2-(hydroxymethyl)-1-methylpyrrolidin-3-yl]-4H-chromen-4-one hydrochloride]	2.04 µM	no effect	~80%	2.3 µM				
Arsenic trioxide [ATO]					4.87 µM	5.19 µM		
O=c1c2ccccc2[se]n1-c1ccccc1 [Ebselen]				3.89 µM			4.02 µM	
CC(=O)OC[C@H]1O[C@@H]([S-])[C@H](OC(C)=O)[C@@H](OC(C)=O)[C@@H]1OC(C)=O.CCP(CC)CC.[Au+] [Auranofin]		concentration dependent reduction	~100%			0.15 µM		0.15 µM
